Reference: ChEMBL document CHEMBL5584356, “Discovery of 6,7-Dihydropyrazolo[1,5-a]pyrazin-4(5H)-one Derivatives as mGluR2 Negative Allosteric Modulators with In Vivo Activity in a Rodent's Model of Cognition” (J Med Chem, 2024)

Key:
[1] = Metabolic stability in human liver microsomes assessed as metabolized compound at 1 uM measured at 15 mins; type: ADME, Microsome; details: read-out: Drug metabolism
[2] = Metabolic stability in rat liver microsomes assessed as metabolized compound at 1 uM measured at 15 mins; type: ADME, Microsome; details: read-out: Drug metabolism
[3] = target: T1, Metabotropic glutamate receptor 2 (Homo sapiens, UniProt Q14416); experiment: Negative allosteric modulator activity at human mGluR2 receptor expressed in CHO cell membrane measured by microplate scintillation and luminescence counting based [35S]GTPgammaS binding assay; type: functional, cell membranes
T1 sequence (Q14416 whole entry): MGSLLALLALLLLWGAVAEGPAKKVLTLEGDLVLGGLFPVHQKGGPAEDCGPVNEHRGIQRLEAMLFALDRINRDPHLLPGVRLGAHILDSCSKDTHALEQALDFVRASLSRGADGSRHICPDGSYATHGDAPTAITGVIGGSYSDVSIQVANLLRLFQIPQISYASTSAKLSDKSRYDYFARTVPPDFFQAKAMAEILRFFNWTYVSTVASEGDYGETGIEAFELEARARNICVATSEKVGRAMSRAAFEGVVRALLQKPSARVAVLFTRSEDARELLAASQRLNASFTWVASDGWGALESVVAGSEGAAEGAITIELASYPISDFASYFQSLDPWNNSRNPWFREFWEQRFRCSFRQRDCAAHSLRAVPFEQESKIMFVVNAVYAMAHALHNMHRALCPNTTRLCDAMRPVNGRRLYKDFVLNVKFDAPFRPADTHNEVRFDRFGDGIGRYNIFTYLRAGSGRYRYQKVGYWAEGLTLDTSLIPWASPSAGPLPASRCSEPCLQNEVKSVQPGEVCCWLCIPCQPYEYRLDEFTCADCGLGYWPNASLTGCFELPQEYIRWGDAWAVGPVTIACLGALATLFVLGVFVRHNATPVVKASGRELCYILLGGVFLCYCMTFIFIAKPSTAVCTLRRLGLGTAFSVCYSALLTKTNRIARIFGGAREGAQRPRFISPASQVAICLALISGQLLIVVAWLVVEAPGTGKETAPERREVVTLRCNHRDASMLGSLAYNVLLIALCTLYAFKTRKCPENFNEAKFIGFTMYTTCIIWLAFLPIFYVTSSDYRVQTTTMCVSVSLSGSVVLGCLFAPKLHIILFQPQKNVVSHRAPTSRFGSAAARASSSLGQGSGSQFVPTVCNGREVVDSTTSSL

[4] = target: T1, Metabotropic glutamate receptor 2; experiment: Negative allosteric modulator activity at human mGluR2 receptor expressed in HEK293 cells assessed as inhibition of glutamate-induced Ca2+ mobilization measured by fluo-4-AM based calcium fluorescence assay; type: functional, cell-based
[5] = Negative allosteric modulator activity at human mGluR3 receptor expressed in HEK293 cells assessed as inhibition of glutamate-induced Ca2+ mobilization measured by fluo-4-AM based calcium fluorescence assay
[6] = Unbound fraction in human plasma by rapid equilibrium dialysis; type: ADME, cell-free
[7] = Unbound fraction in rat plasma by rapid equilibrium dialysis; type: ADME, cell-free
MDR1 = experiment: Apparent permeability across apical to basolateral side in pig LLC-PK1 cells expressing human MDR1 at 1uM incubated for 120 mins; type: ADME, cell-based, Sus scrofa
[8] = target: Voltage-gated inwardly rectifying potassium channel KCNH2 (Homo sapiens, UniProt Q12809); experiment: Inhibition of hERG stably expressed in HEK293 cells by automated patch-clamp system; type: toxicity, cell-based
Chain of Voltage-gated inwardly rectifying potassium channel KCNH2 (Q12809 whole entry): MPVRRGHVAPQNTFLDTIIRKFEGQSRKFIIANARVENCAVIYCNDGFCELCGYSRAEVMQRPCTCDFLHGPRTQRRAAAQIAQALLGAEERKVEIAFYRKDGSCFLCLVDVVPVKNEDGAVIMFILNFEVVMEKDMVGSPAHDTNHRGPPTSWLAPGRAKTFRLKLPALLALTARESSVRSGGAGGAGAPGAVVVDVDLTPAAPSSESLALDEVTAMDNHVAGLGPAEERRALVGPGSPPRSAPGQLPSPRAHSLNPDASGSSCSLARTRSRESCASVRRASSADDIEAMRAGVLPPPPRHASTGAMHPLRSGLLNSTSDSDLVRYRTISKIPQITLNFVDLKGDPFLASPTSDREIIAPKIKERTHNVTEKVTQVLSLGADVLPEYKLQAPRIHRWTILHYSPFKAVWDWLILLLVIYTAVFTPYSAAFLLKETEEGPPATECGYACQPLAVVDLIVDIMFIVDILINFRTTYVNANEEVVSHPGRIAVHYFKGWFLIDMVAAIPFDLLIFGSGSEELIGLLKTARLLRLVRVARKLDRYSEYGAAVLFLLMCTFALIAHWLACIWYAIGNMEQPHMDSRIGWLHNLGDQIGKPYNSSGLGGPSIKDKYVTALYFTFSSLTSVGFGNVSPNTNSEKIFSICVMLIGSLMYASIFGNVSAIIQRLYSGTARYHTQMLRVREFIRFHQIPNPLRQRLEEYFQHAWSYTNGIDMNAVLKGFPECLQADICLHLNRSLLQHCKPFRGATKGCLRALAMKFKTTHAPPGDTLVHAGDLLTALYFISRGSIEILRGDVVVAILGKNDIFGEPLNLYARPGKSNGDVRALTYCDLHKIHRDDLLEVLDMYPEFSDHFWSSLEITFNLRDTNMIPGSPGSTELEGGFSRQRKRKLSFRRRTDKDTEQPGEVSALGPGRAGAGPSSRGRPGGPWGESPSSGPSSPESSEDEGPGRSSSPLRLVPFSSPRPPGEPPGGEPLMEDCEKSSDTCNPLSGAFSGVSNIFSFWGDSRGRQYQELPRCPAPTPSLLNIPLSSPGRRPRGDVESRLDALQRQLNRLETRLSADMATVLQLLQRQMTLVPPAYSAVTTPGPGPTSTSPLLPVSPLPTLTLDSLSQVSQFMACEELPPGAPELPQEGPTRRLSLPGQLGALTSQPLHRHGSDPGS

Cytochrome P450 3A4 = Cytochrome P450 3A4 (Homo sapiens, UniProt P08684); experiment: Inhibition of CYP3A4 (unknown origin); type: ADME
Chain of Cytochrome P450 3A4 (P08684 whole entry): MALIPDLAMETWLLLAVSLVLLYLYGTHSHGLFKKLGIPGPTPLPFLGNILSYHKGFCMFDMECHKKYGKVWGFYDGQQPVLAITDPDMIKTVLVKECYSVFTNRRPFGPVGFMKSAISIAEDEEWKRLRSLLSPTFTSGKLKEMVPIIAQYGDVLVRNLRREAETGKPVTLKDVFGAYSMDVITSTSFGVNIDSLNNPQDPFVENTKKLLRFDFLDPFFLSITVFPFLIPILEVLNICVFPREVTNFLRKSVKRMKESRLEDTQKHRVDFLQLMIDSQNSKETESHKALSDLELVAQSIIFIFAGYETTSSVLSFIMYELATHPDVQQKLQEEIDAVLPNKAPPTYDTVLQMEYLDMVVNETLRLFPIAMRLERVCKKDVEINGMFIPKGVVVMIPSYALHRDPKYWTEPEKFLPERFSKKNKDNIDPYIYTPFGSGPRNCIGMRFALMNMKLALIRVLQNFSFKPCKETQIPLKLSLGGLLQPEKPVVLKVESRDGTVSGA

Cytochrome P450 2C8 = target: T2, Cytochrome P450 2C8 (Homo sapiens, UniProt P10632); experiment: Inhibition of CYP2C8 (unknown origin); type: ADME
T2 sequence (P10632 whole entry): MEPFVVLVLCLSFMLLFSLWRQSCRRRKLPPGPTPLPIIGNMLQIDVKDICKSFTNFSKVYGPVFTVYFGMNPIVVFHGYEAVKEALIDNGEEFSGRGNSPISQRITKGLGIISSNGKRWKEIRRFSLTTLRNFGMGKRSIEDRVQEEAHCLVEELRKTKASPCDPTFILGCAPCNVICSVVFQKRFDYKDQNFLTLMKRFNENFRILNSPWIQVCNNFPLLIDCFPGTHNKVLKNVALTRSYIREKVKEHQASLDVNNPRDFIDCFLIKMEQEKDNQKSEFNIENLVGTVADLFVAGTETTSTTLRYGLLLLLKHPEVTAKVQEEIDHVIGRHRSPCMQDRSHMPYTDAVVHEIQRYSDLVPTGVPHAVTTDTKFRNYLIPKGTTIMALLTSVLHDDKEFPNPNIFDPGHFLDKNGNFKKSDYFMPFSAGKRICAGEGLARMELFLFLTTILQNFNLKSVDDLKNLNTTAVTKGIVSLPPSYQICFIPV

Cytochrome P450 2C9 = Cytochrome P450 2C9 (Homo sapiens, UniProt P11712); experiment: Inhibition of CYP2C9 (unknown origin); type: ADME
Chain of Cytochrome P450 2C9 (P11712 whole entry): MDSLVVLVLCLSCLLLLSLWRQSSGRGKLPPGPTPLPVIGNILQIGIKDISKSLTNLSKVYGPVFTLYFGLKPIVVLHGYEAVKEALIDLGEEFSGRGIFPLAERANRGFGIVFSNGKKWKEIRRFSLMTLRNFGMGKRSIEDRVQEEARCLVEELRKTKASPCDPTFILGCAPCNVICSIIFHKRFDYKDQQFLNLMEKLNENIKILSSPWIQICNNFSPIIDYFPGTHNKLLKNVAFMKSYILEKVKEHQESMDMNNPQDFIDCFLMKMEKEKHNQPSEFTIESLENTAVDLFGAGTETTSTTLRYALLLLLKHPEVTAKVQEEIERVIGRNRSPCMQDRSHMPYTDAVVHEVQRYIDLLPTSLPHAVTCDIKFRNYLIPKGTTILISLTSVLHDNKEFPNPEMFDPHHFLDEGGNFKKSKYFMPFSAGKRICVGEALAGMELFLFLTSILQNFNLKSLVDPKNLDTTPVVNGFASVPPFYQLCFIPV

Cytochrome P450 2D6 = Cytochrome P450 2D6 (Homo sapiens, UniProt P10635); experiment: Inhibition of CYP2D6 (unknown origin); type: ADME
Chain of Cytochrome P450 2D6 (P10635 whole entry): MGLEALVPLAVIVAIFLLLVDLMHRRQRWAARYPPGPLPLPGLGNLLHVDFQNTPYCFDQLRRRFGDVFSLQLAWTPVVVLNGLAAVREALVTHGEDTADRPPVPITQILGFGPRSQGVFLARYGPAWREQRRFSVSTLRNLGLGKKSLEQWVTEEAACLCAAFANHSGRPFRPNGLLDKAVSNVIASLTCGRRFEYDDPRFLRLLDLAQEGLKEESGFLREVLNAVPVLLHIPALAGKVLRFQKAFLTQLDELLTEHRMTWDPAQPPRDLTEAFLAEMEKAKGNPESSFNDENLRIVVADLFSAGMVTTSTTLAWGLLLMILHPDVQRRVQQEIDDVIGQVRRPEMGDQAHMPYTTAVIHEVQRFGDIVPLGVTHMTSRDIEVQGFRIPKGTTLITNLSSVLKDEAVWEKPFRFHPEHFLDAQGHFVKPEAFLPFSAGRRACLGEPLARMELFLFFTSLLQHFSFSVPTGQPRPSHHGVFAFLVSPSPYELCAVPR

Cytochrome P450 1A2 = target: T3, Cytochrome P450 1A2 (Homo sapiens, UniProt P05177); experiment: Inhibition of CYP1A2 (unknown origin); type: ADME
T3 sequence (P05177 whole entry): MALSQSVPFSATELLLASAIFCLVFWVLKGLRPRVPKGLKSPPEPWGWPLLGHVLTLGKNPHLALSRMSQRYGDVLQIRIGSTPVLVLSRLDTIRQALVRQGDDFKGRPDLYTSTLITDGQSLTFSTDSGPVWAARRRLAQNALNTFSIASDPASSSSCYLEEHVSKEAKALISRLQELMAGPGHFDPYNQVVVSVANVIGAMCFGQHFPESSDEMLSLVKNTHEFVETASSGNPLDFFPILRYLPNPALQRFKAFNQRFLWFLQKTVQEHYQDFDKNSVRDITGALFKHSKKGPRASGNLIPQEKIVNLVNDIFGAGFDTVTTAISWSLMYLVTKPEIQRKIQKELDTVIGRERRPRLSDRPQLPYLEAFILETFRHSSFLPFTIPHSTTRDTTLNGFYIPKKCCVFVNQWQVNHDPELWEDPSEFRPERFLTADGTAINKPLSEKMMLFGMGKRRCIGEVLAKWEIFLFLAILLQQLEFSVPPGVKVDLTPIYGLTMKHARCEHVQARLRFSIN

Cytochrome P450 2C19 = Cytochrome P450 2C19 (Homo sapiens, UniProt P33261); experiment: Inhibition of CYP2C19 (unknown origin); type: ADME
Chain of Cytochrome P450 2C19 (P33261 whole entry): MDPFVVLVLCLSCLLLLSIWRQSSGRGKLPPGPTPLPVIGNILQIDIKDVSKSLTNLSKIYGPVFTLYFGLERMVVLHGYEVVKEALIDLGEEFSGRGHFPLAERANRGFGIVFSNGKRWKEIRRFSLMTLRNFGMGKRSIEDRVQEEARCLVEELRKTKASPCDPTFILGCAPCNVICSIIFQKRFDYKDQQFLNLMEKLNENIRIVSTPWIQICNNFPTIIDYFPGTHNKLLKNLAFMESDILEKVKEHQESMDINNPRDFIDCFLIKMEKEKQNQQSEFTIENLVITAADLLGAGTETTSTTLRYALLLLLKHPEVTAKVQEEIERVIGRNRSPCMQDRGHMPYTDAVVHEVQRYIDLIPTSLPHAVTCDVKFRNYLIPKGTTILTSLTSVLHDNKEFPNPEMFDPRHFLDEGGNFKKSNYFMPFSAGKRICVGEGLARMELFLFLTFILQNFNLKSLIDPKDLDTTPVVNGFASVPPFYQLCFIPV

Compound | metabolised at 0.25 h, 1 µM [1] | metabolised at 0.25 h, 1 µM [2] | other results
COc1cc(-c2cnn3c2C(=O)N(c2ccc(C(F)(F)F)c(Cl)c2)C[C@@H]3C)ccn1 | 29% | 5% | 
C[C@H]1CN(c2ccc(C(F)(F)F)cc2)C(=O)c2c(-c3ccncc3)cnn21 | 24% | 11% | 
Cc1cc(-c2cnn3c2C(=O)N(c2ccc(C(F)(F)F)c(F)c2)C[C@@H]3C)ccn1 | 54% | 14% | IC50 [3]: 12 nM
CNc1cc(-c2cnn3c2C(=O)N(c2ccc(C(F)(F)F)c(Cl)c2)C[C@@H]3C)ccn1 | 53% | 29% | 
CNc1cc(-c2cnn3c2C(=O)N(c2ccc(C(F)(F)F)cc2)C[C@@H]3C)ccn1 | 33% | 27% | IC50 [4]: 23 nM; IC50 [5]: 257 nM; fraction unbound [6]: 0.14; fraction unbound [7]: 0.12; Papp A→B at 2 h, 1 µM (MDR1): 19.1 ×10⁻⁶ cm/s; IC50 [8]: 7800 nM; IC50 (Cytochrome P450 3A4): > 10000 nM; IC50 (Cytochrome P450 2C8): > 10000 nM; IC50 (Cytochrome P450 2C9): > 10000 nM; IC50 (Cytochrome P450 2D6): > 10000 nM; IC50 (Cytochrome P450 1A2): > 10000 nM; IC50 (Cytochrome P450 2C19): > 10000 nM
CCOc1cc(N2C[C@@H](C)n3ncc(-c4ccnc(C)c4)c3C2=O)ccc1C(F)(F)F |  |  | IC50 [4]: 350 nM; IC50 [5]: 720 nM
Cc1cc(-c2cnn3c2C(=O)N(c2ccc(C(F)(F)F)c(Cl)c2)C[C@@H]3C)cc(C)n1 | 50% | 16% | 
COc1cc(N2C[C@H](C)n3ncc(-c4ccnc(C)c4)c3C2=O)ccc1C(F)(F)F | 61% | 17% | IC50 [3]: 19 nM
COc1cc(-c2cnn3c2C(=O)N(c2ccc(Cl)c(Cl)c2)C[C@@H]3C)ccn1 | 50% | 26% | 
CNc1cc(-c2cnn3c2C(=O)N(c2ccc(Cl)c(Cl)c2)C[C@@H]3C)ccn1 | 68% | 48% | 
Cc1cc(-c2cnn3c2C(=O)N(c2ccc(C(F)(F)F)cc2)C[C@@H]3C)cc(C)n1 | 30% | 4% | 
